Data on 27 compounds can be found in patent US9452986B2, “6-heteroaryloxy- or 6-aryloxy-quinoline-2-carboxamides and method of use” (AbbVie Inc., priority 2014, dated 2016).

In one experiment the target is recombinant human Nav1.7 (Homo sapiens (Human), UniProt Q15858). The experiment can be described thus: FRET-based membrane potential assay, recombinant human sodium channel Nav1.7. The format is cell-based. The conditions noted are these: HEK293 cells stably expressing recombinant human Nav1.7; veratridine + scorpion venom depolarization; read-out: FRET-Membrane Potential Nav1.7 IC50. As to the method: FRET-Based Membrane Potential Assays.
Chain of recombinant human Nav1.7 (Q15858 whole entry): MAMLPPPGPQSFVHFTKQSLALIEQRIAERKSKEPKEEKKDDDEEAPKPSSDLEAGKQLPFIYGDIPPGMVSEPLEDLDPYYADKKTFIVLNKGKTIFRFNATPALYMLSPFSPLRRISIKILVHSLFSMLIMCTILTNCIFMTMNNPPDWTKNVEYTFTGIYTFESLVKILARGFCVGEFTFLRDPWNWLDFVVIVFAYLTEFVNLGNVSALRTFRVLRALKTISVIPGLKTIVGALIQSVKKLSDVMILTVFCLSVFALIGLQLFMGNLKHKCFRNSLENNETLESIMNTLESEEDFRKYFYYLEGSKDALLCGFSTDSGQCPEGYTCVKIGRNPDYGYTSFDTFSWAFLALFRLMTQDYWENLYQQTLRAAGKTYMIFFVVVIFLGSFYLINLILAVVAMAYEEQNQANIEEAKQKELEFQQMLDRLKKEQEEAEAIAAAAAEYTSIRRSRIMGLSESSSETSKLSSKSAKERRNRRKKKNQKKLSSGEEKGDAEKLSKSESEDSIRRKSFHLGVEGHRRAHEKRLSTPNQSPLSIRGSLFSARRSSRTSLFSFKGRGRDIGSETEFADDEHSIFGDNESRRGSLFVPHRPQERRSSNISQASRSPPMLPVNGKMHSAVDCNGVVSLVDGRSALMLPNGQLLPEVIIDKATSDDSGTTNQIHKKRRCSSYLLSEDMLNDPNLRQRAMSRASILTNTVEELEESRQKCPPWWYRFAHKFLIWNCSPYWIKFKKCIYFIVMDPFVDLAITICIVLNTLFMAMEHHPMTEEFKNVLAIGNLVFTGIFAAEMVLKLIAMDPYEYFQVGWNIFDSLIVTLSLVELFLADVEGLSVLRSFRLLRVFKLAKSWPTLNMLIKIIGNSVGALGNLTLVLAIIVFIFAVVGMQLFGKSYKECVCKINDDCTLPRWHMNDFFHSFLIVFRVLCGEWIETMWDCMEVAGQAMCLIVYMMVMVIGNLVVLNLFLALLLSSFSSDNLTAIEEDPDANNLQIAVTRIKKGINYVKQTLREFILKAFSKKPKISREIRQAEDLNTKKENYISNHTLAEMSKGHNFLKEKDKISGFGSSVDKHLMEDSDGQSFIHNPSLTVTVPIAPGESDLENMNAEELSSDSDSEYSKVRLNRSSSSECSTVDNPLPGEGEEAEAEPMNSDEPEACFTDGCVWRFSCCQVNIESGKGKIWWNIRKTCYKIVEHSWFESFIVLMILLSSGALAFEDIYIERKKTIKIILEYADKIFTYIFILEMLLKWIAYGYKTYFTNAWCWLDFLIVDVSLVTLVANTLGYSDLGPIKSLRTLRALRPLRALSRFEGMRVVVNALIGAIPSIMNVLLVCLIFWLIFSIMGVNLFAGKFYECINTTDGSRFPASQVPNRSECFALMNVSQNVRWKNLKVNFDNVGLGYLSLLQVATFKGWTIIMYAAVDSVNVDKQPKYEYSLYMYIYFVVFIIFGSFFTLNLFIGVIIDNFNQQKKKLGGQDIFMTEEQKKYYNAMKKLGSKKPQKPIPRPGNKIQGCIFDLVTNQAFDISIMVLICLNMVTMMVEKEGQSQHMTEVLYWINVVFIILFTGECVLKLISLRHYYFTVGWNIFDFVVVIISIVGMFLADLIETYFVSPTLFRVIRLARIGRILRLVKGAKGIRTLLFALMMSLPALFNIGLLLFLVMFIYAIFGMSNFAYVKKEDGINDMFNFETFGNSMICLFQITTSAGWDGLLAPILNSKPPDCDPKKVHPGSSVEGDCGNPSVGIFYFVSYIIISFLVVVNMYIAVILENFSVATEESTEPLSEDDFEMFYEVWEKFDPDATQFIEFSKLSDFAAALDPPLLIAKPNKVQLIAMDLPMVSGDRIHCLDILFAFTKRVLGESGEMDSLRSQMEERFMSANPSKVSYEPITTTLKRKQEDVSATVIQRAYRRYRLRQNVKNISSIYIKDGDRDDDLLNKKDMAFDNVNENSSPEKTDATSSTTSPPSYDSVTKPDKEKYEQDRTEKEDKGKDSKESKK
Recombinant, Human Sodium Channel, Nav1.7.
On the day of the assay, medium was removed by aspiration, and cells were washed with assay buffer [HBSS (Invitrogen, Carlsbad, Calif.) containing 20 mM HEPES (Invitrogen, Carlsbad, Calif.)]. […] Cells were incubated for 40 minutes at room temperature in the dark. […] The cells were incubated for 90 minutes at room temperature in the dark. Fluorescence readings were made using a FLIPR®^TETRA (Molecular Devices, Sunnyvale Calif.) equipped with voltage-sensor probe optics. At the start of each experiment the optimal (EC80) concentration of depolarizing agent (veratridine) was determined by testing a dilution curve of assay buffer containing veratridine (Sigma-Aldrich, St. Louis, Mo.) and 1 mg/mL scorpion venom (SVqq, from Leiurus quinquestriatus; Sigma-Aldrich, St. Louis, Mo.). […] Test compounds in the daughter plate were diluted to (˜3×) solutions in assay buffer immediately before assaying. Using the FLIPR®^TETRA, 20 μL of the (3×) compound solutions were first added to the cells, then 20 μL of depolarizing solution (3×EC80 veratridine+SVqq) were added 3 minutes later to activate the channel. […] IC50 values were calculated from curve fits of the ratio data using a four-parameter logistic Hill equation (Accelrys Assay Explorer 3.3 Client, Accelrys, San Diego, Calif.) with percent inhibition plotted against compound concentration.
For the compound `N#Cc1ccc(Oc2ccc3nc(C(=O)N4CCNC(=O)C4)ccc3c2)cc1` [Example 137, 4-({2-[(3-oxopiperazin-1-yl)carbonyl]quinolin-6-yl}oxy)benzonitrile], the IC50 worked out at 8.24 µM.

`N#Cc1ccc(Oc2ccc3nc(C(=O)N4CCC(N5CCOCC5)CC4)ccc3c2)cc1` [Example 138, 4-[(2-{[4-(morpholin-4-yl)piperidin-1-yl]carbonyl}quinolin-6-yl)oxy]benzonitrile]: the IC50 was 2.47 µM.

For the compound `N#Cc1ccc(Oc2ccc3nc(C(=O)N[C@@H]4CCOc5ccc(F)cc54)ccc3c2)cc1` [Example 139, 6-(4-cyanophenoxy)-N-[(4R)-6-fluoro-3,4-dihydro-2H-chromen-4-yl]quinoline-2-carboxamide], the IC50 is over 20 µM.

Turning to `CC(C)(C)N1CCN(C(=O)c2ccc3cc(Oc4ccc(C#N)cc4)ccc3n2)CC1` [Example 140, 4-({2-[(4-tert-butylpiperazin-1-yl)carbonyl]quinolin-6-yl}oxy)benzonitrile], the 50% inhibitory concentration (IC50) came out at 0.559 µM.

Turning to `CC1(C)C[C@@H](NC(=O)c2ccc3cc(Oc4ccc(C#N)cc4)ccc3n2)c2cc(F)ccc2O1` [Example 141, 6-(4-cyanophenoxy)-N-[(4R)-6-fluoro-2,2-dimethyl-3,4-dihydro-2H-chromen-4-yl]quinoline-2-carboxamide], the IC50 was over 20 µM.

On to `CC(C)[C@H]1CN(C(=O)c2ccc3cc(Oc4ccc(C#N)cc4)ccc3n2)CCN1` [Example 142, 4-[(2-{[(3S)-3-isopropylpiperazin-1-yl]carbonyl}quinolin-6-yl)oxy]benzonitrile], for which the IC50 was determined as 0.766 µM.

With `CN1CCC(NC(=O)c2ccc3cc(Oc4ccc(C#N)cc4)ccc3n2)C1=O` (stereo not drawn) [Example 143, 6-(4-cyanophenoxy)-N-(1-methyl-2-oxopyrrolidin-3-yl)quinoline-2-carboxamide], the IC50 was determined as 1.08 µM.

For the compound `N#Cc1ccc(Oc2ccc3nc(C(=O)NCc4ncco4)ccc3c2)cc1` [Example 144, 6-(4-cyanophenoxy)-N-(1,3-oxazol-2-ylmethyl)quinoline-2-carboxamide], the IC50 amounted to 0.832 µM.

As to `CNC(=O)CNC(=O)c1ccc2cc(Oc3ccc(C#N)cc3)ccc2n1` [Example 145, 6-(4-cyanophenoxy)-N-[2-(methylamino)-2-oxoethyl]quinoline-2-carboxamide], the IC50 was determined as 3.09 µM.

In the case of `N#Cc1ccc(Oc2ccc3nc(C(=O)NCC(N)=O)ccc3c2)cc1` [Example 146, N-(2-amino-2-oxoethyl)-6-(4-cyanophenoxy)quinoline-2-carboxamide], the 50% inhibitory concentration (IC50) stood at 8.03 µM.

For the compound `N#Cc1ccc(Oc2ccc3nc(C(=O)NCCS(N)(=O)=O)ccc3c2)cc1` [Example 147, 6-(4-cyanophenoxy)-N-(2-sulfamoylethyl)quinoline-2-carboxamide], the 50% inhibitory concentration (IC50) was 4.28 µM.

As to `N#Cc1ccc(Oc2ccc3nc(C(=O)N4CCS(=O)(=O)CC4)ccc3c2)cc1` [Example 148, 4-({2[(1,1-dioxidothiomorpholin-4-yl)carbonyl]quinolin-6-yl}oxy)benzonitrile], the IC50 was 12.1 µM.

On to `NC(=O)CNC(=O)c1ccc2cc(Oc3ccc(C(F)(F)F)cn3)ccc2n1` [Example 150, N-(2-amino-2-oxoethyl)-6-{[5-(trifluoromethyl)pyridin-2-yl]oxy}quinoline-2-carboxamide], for which the IC50 was determined as 2.28 µM.

In the case of `O=C(NCc1ccccn1)c1ccc2cc(Oc3ccc(C(F)(F)F)cn3)ccc2n1` [Example 151, N-(pyridin-2-ylmethyl)-6-{[5-(trifluoromethyl)pyridin-2-yl]oxy}quinoline-2-carboxamide], the IC50 was 0.792 µM.

Consider `O=C(NC1CCS(=O)(=O)C1)c1ccc2cc(Oc3ncc(C(F)(F)F)cc3Cl)ccc2n1` (stereo not drawn) [Example 154, 6-{[3-chloro-5-(trifluoromethyl)pyridin-2-yl]oxy}-N-(1,1-dioxidotetrahydrothiophen-3-yl)quinoline-2-carboxamide], for which the IC50 amounted to 2.32 µM.

As for `O=C(c1ccc2cc(Oc3ccc(C(F)(F)F)cn3)ccc2n1)N1CC2(CNC2)C1` [Example 157, 2,6-diazaspiro[3.3]hept-2-yl(6-{[5-(trifluoromethyl)pyridin-2-yl]oxy}quinolin-2-yl)methanone], the IC50 is over 20 µM.

In the case of `N#Cc1ccc(Oc2ccc3nc(C(=O)NC4CCS(=O)(=O)C4)ccc3c2)nc1` (stereo not drawn) [Example 158, 6-[(5-cyanopyridin-2-yl)oxy]-N-(1,1-dioxidotetrahydrothiophen-3-yl)quinoline-2-carboxamide], the IC50 was over 20 µM.

On to `Cc1cc(C)nc(Oc2ccc3nc(C(=O)NC4CCS(=O)(=O)C4)ccc3c2)n1` (stereo not drawn) [Example 162, 6-[(4,6-dimethylpyrimidin-2-yl)oxy]-N-(1,1-dioxidotetrahydrothiophen-3-yl)quinoline-2-carboxamide], for which the IC50 was over 20 µM.

`Cc1ccnc(Oc2ccc3nc(C(=O)NC4CCS(=O)(=O)C4)ccc3c2)n1` (stereo not drawn) [Example 163, N-(1,1-dioxidotetrahydrothiophen-3-yl)-6-[(4-methylpyrimidin-2-yl)oxy]quinoline-2-carboxamide]: the IC50 is over 20 µM.

The experiment is the same for the next values; noted with them: read-out: FRET-Membrane Potential Nav1.7 IC50.
For the compound `CC(C)C(O)CNC(=O)c1ccc2cc(Oc3ccc(C#N)cc3)ccc2n1` (stereo not drawn) [Example 135, 6-(4-cyanophenoxy)-N-(2-hydroxy-3-methylbutyl)quinoline-2-carboxamide], the IC50 was determined as 0.688 µM.

`N#Cc1ccc(Oc2ccc3nc(C(=O)NC4CCS(=O)(=O)C4)ccc3c2)cc1` (stereo not drawn) [Example 136, 6-(4-cyanophenoxy)-N-(1,1-dioxidotetrahydrothiophen-3-yl)quinoline-2-carboxamide]: the IC50 is 0.533 µM.

As for `O=C(c1ccc2cc(Oc3cccc(C(F)(F)F)n3)ccc2n1)N1CCNCC1` [Example 153, piperazin-1-yl(6-{[6-(trifluoromethyl)pyridin-2-yl]oxy}quinolin-2-yl)methanone], the IC50 was 3.3 µM.

Regarding `O=C(NC1CCS(=O)(=O)C1)c1ccc2cc(Oc3ncc(C(F)(F)F)cn3)ccc2n1` (stereo not drawn) [Example 155, N-(1,1-dioxidotetrahydrothiophen-3-yl)-6-{[5-(trifluoromethyl)pyrimidin-2-yl]oxy}quinoline-2-carboxamide], the IC50 is 5.38 µM.

As for `O=C(c1ccc2cc(Oc3ccc(C(F)(F)F)cn3)ccc2n1)N1CC2(COC2)C1` [Example 156, 2-oxa-6-azaspiro[3.3]hept-6-yl(6-{[5-(trifluoromethyl)pyridin-2-yl]oxy}quinolin-2-yl)methanone], the IC50 was over 20 µM.

For `N#Cc1ccc(Oc2ccc3nc(C(=O)N[C@H]4CCS(=O)(=O)C4)ccc3c2)cc1` [Example 159, 6-(4-cyanophenoxy)-N-[(3S)-1,1-dioxidotetrahydrothiophen-3-yl]quinoline-2-carboxamide], the IC50 was 0.73 µM.

For the compound `N#Cc1ccc(Oc2ccc3nc(C(=O)N[C@@H]4CCS(=O)(=O)C4)ccc3c2)cc1` [Example 160, 6-(4-cyanophenoxy)-N-[(3R)-1,1-dioxidotetrahydrothiophen-3-yl]quinoline-2-carboxamide], the IC50 came out at 0.71 µM.

For `Cc1cnc(Oc2ccc3nc(C(=O)NC4CCS(=O)(=O)C4)ccc3c2)nc1` (stereo not drawn) [Example 161, N-(1,1-dioxidotetrahydrothiophen-3-yl)-6-[(5-methylpyrimidin-2-yl)oxy]quinoline-2-carboxamide], the IC50 was over 20 µM.
